# In PubChem BioAssay AID602236 (The Scripps Research Institute Molecular Screening Center, 2012):
# pIC50: −log10 of the molar value. Activity calls are given as the source filed them.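 How the source made its calls: active means IC50 of 10 µM or lower; inactive means IC50 above 10 µM.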
# Tested on: HEK-293 Gal4-VP16 UAS luciferase reporter, luminescence
# Assay: VP16 transactivation inhibitor potency, dose response, counter-screen for SRC1 inhibitor project, cell-based, luminescence, high throughput, SRC1 series (AID 602236);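 further: inhibitor potency where hits lower luciferase light from Gal4-VP16 transactivation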
SMILES,pIC50,IC50
C=CCn1c(Oc2ccccc2F)nc2c1c(=O)n(C)c(=O)n2C,5.07,–
CCc1c(C)nc2c(C)cccc2c1SCCC#N,–,> 35.9 µM (inactive)
COc1ccc(-n2cnc3c(sc4nccc(N(C)C)c43)c2=O)cc1,–,14.2 µM (inactive)
Fc1cccc(CSc2nnc3ccc(-c4ccncc4)nn23)c1,–,> 35.8 µM (inactive)
CCc1nc(N)nc(N)c1-c1ccc(Cl)c([N+](=O)[O-])c1,–,> 35.8 µM (inactive)
COc1ccc2c(=O)cc(-c3ccncc3)oc2c1OC,–,> 12 µM (inactive)
CC1CCCCN1c1ncnc2ccccc12 (stereo not drawn),–,13.4 µM (inactive)
CN(Cc1cnc2nc(N)nc(N)c2n1)c1ccc(C(=O)NC(CCC(=O)O)C(=O)O)cc1 (stereo not drawn),–,> 35.9 µM (inactive)
COc1ccc(Oc2nc3c(c(=O)n(C)c(=O)n3C)n2C)cc1,–,16.6 µM (inactive)
CCCCCCCC[n+]1c(C)n(-c2ccccc2)c2ccc(NC(C)=O)cc21,–,10.5 µM (inactive)
CCCc1cc(C(=O)N(C)CC(=O)Nc2ccc(OCC)c(OCC)c2)sc1C,–,> 35.9 µM (inactive)
CCN(C(=O)c1cc(S(=O)(=O)N2CCCCC2)c[nH]1)c1ccc(OC)cc1,–,12.8 µM (inactive)
Cc1ccc2occ(/C=N/NC(=O)c3ccncc3)c(=O)c2c1,–,22.8 µM (inactive)
Cc1c(C(=O)N/N=C/C(C)C)[nH]c2ccc([N+](=O)[O-])cc12,–,21.3 µM (inactive)
COc1ccc(/C=C2/SC(=S)N(CCC(=O)O)C2=O)cc1,–,> 35.9 µM (inactive)
Cc1nc2ccccn2c1-c1ccnc(=S)[nH]1,–,> 35.8 µM (inactive)
COc1cccc(/C=N/NC(=O)CNC(=O)C2COc3ccccc3O2)c1O (stereo not drawn),–,11.1 µM (inactive)
Cc1ccc(/C=C2/SC(=S)N(CCCC(=O)Nc3ccc(O)cc3)C2=O)cc1,–,> 12 µM (inactive)
Cc1sc2ncnc(N3CCC(C(=O)Nc4cc(S(C)(=O)=O)ccc4Cl)CC3)c2c1C,–,20.7 µM (inactive)
COc1ccccc1/C=C\C(=O)NCC(=O)N/N=C/c1cccc(OC)c1O,–,15.5 µM (inactive)
Cc1ccc(NC(=O)NC2CC(=O)N(c3ccc4c(c3)OCCO4)C2)cc1C (stereo not drawn),–,20.6 µM (inactive)
Cc1nc2c(-c3ccc(Cl)cc3)c(C)[nH]n2c(=O)c1Cc1ccccc1,5.16,–
O=[N+]([O-])c1ccc2c(c1)-c1ccccc1C2=NO,–,> 35.9 µM (inactive)
CCN(c1ccccc1)S(=O)(=O)c1cc(C(=O)Nc2ccc(Br)cc2)ccc1F,5.08,–
CCOc1ccc(/C=C2\SC(=S)N(CCCC(=O)NCCCN3CCOCC3)C2=O)cc1,–,21.9 µM (inactive)

SMILES,pIC50,IC50
Cc1nc2c(-c3ccc(F)cc3)cnn2c(N)c1-c1ccccc1,–,14.5 µM (inactive)
C=CCn1c(O)c(C(C)=NCc2cc(OC)cc(OC)c2)c(=O)[nH]c1=O,5.10,–
CCCS(=O)(=O)Nc1ccc(Nc2c3ccccc3nc3ccccc23)c(OC)c1,–,> 35.9 µM (inactive)
CCOC(=O)c1c(NC(=O)C(C)N2CCN(C(=O)c3ccco3)CC2)sc2c1CCCC2 (stereo not drawn),–,11.4 µM (inactive)
CCC(=O)c1ccc(Oc2nc3c(c(=O)n(C)c(=O)n3C)n2CC)cc1,–,12.4 µM (inactive)
O=C(c1ccncc1)N(Cc1cc2ccccc2[nH]c1=O)C1CCCCC1,5.10,–
C=C1C(=O)[C@@]23C[C@H]4[C@@H]5[C@@]6(C)CCC[C@@]57[C@@H]2[C@@H](O)[C@@H]1C[C@H]3[C@H]7N4C6,5.09,–
CN(CC(=O)Nc1ccc(Cl)c(C(F)(F)F)c1)C(=O)C1CC(=O)N(c2ccc3c(c2)OCCO3)C1 (stereo not drawn),–,25.1 µM (inactive)
CCCCCOc1ccc(/C=C/c2c([N+](=O)[O-])c(=O)n(C)c(=O)n2C)cc1,–,10.1 µM (inactive)
c1ccc(-c2nnc(-c3ccccn3)nc2NC2CCCCC2)cc1,–,> 35.9 µM (inactive)
COc1ccc2ncn(-c3ccccc3)c2c1,5.23,–
O=C(COC(=O)c1ccc[nH]c1=O)Nc1ccc(N2CCCCC2)cc1,–,> 35.9 µM (inactive)
O=C1c2cccc(OCc3ccc(F)cc3)c2CCN1Cc1ccccc1,–,10.7 µM (inactive)
CCC(=O)Oc1c(C(=O)CC)cc2c(C)cc(=O)oc2c1C,–,18.9 µM (inactive)
Nc1ccn([C@@H]2O[C@H](CO)[C@@H](O)C2O)c(=O)n1 (stereo partly drawn),–,16.2 µM (inactive)
CCN(CC(=O)Nc1ccc(NC(C)=O)cc1)C(=O)C1(c2ccc(Cl)cc2)CCC1,–,> 35.9 µM (inactive)
COc1ccccc1CNC(=O)C(=O)NCCC1CCCCN1S(=O)(=O)c1ccc(C)cc1 (stereo not drawn),–,23.1 µM (inactive)
O=C1NCCc2c1[nH]c1ccc([N+](=O)[O-])cc21,–,32 µM (inactive)
O=C(CCl)N1N=C(c2ccco2)CC1c1cccs1 (stereo not drawn),–,16 µM (inactive)
O=C(N/N=C/c1ccccc1O)/C(=C/c1ccccc1)CCO,5.12,–
COc1ccc(-c2cnc(N)nc2-c2ccc(OC)cc2O)cc1,–,11.7 µM (inactive)
O=C(Nc1ccncc1)c1ccccc1[N+](=O)[O-],–,14.2 µM (inactive)
O=[N+]([O-])c1ccc(N(CCO)CCO)c2c1no[n+]2[O-],5.10,–
COc1cc2c3c([nH]c2cc1F)C(=O)NCC3,–,24.8 µM (inactive)
COc1cccc(/C=N/NC(=O)C(=O)Nc2ccccc2OC(F)(F)C(F)F)c1O,–,10.7 µM (inactive)

SMILES,pIC50,IC50
O=C(CCn1cnc(-c2ccccc2)c1-c1ccccc1)N/N=C/c1ccccc1O,–,19.9 µM (inactive)
Fc1ccc(CSc2nnc(-c3ccncc3)o2)cc1,5.11,–
O=C(N/N=C/c1coc2ccc(Cl)cc2c1=O)c1ccc(O)cc1,–,> 35.9 µM (inactive)
Cc1ccc(N=c2c([N+](=O)[O-])nn(-c3ccc4c(c3)OCCO4)n2O)cc1F,–,27 µM (inactive)
CCOC(=O)c1cccc2c1-c1ccccc1/C2=N/O,5.09,–
C=CCNc1ncnc2ccc(Br)cc12,5.22,–
COc1cc(C(=O)N/N=C(\c2ccccc2)c2ccccn2)cc(OC)c1OC,5.06,–
O=C(Nc1cccnc1)c1ccc(C(=O)Nc2cccnc2)cc1,–,> 35.9 µM (inactive)
O=C(Nc1cccc(Cl)c1)Nc1nnc(-c2ccncc2)s1,5.29,–
Cc1cccn2c(=O)c3cc(C(=O)NCCN4CCOCC4)c(=N)n(Cc4cccnc4)c3nc12,–,13.5 µM (inactive)
O=C(Nc1nc(-c2ccccn2)cs1)c1cccc(-n2cnnn2)c1,–,17 µM (inactive)
CN(c1ccc(C(=O)N2CCN(Cc3ccc4c(c3)OCO4)CC2)cc1)S(=O)(=O)c1ccccc1,–,13.5 µM (inactive)
COc1ccc(Nc2ncnc3ccc(C)cc23)cc1,5.08,–
OCCN(CCO)CC(O)COc1ccc(C23CC4CC(CC(C4)C2)C3)cc1 (stereo not drawn),–,> 35.9 µM (inactive)
O=[N+]([O-])c1cccc2c1ccc1ncccc12,–,12.8 µM (inactive)
O=C(CCl)N1N=C(c2cccs2)CC1c1ccco1 (stereo not drawn),–,20.2 µM (inactive)
CC(C)n1c(-c2cccnc2)nc2cnccc21,5.02,–
Cc1noc(/C=C/c2ccco2)c1S(=O)(=O)N1CCC(C(=O)Nc2ccc(Cl)cn2)CC1,–,16.1 µM (inactive)
Cc1cc(/C=C2\Cc3ccccc3C2=O)c(C)n1-c1ccccc1,–,> 35.9 µM (inactive)
COC(=O)c1cccc2c1-c1ccccc1/C2=N/O,5.31,–
O=C(CCC1CCCC1)Nc1ccc(C(=O)NCc2cccnc2)cc1,5.11,–
CC(=O)/C(N=Nc1ccc2c(c1)OCCO2)=C(\C)O,–,> 35.9 µM (inactive)
COc1ccc(Cc2nnc(SCc3ccc([N+](=O)[O-])cc3)o2)cc1,–,15.3 µM (inactive)
